According to ChEMBL document CHEMBL5154776, “Discovery of Potent and Orally Bioavailable Platelet-Derived Growth Factor Receptor (PDGFR) Inhibitors for the Treatment of Osteosarcoma” (J Med Chem, 2022):
Activity calls are given as the source filed them.

Experiments:
[1] = system: MG-63; experiment: Antiinvasive activity against human MG-63 cells assessed as expression of FAK by measuring fluorescence at 0.1 to 0.4 uM upto 48 hrs by DAPI staining based immunofluorescence microscopic analysis; type: functional, cell-based; settings: dose 0.1-0.4 µM
[2] = system: MG-63; experiment: Antiinvasive activity against human MG-63 cells assessed as reduction in cell spreading area upto 48 hrs by DAPI staining based immunofluorescence microscopic analysis; type: functional; settings: dose 0.1-0.4 µM, DDE = dose-dependent effect
[3] = system: HOS-TE85; experiment: Induction of cell cycle arrest in human MNNG/HOS cells assessed as accumulation of cells at G2/M phase incubated for 48 hrs by propidium iodide staining based flow cytometry analysis; type: functional; settings: dose 0.1-0.4 µM, DDE = dose-dependent effect
[4] = system: HOS-TE85; experiment: Induction of DNA damage in human MNNG/HOS cells assessed as tail DNA at 0.1 to 0.4 uM measured after 48 hrs by comet assay; type: functional, cell-based; settings: dose 0.1-0.4 µM
[5] = biological target: Focal adhesion kinase 1 (Homo sapiens) (UniProt Q05397); experiment: Inhibition of FAK phosphorylation in human MNNG/HOS cells incubated for 48 hrs by Western blot analysis; type: cell-based; settings: dose 0.1-0.4 µM, DDE = dose-dependent effect
[6] = system: HOS-TE85; experiment: Antitumor activity against human MNNG/HOS cells xenografted in BALB/c nude mouse assessed as reduction in tumor growth at 15 to 30 mg/kg/day, po dosed for 14 days; type: functional, organism-based; settings: dose lower […], dose upper 30.0 mg/kg/day, time 14.0 day
[7] = system: HOS-TE85; experiment: Inhibition of cell migration in human MNNG/HOS cells at 0.1 to 0.4 uM measured for 48 hrs scratch wound healing migration assay; type: functional, cell-based; settings: dose 0.1-0.4 µM
[8] = biological target: T1, Platelet-derived growth factor receptor beta (Homo sapiens, UniProt P09619); experiment: Inhibition of PDGFRbeta in PDGF AA/BB stimulated human MG-63 cells assessed as reduction in fluorescence intensity measured after 48 hrs by DAPI staining based immunofluorescence analysis; type: cell-based; settings: dose 0.1-0.4 µM, DDE = dose-dependent effect
[9] = system: HOS-TE85; experiment: Inhibition of colony formation in human MNNG/HOS cells at 0.2 uM by crystal violet staining based analysis; type: functional, cell-based
[10] = system: HOS-TE85; experiment: In vivo inhibition of PDGFRbeta-mediated downstream signalling in human MNNG/HOS cells xenografted in BALB/c nude mouse assessed as phosphorylation of STAT3 in tumor tissue at 15 to 30 mg/kg/day, po for 14 days; type: functional, organism-based; settings: dose lower […], dose upper 30.0 mg/kg/day, time 14.0 day
[11] = biological target: T1, Platelet-derived growth factor receptor beta; experiment: Inhibition of PDGFRbeta-mediated downstream signalling in human MG-63 cells assessed as suppression of ERK phosphorylation at 0.1 uM measured after 48 hrs by western blot analysis; type: cell-based
[12] = system: HOS-TE85; experiment: Inhibition of FAK expression in human MNNG/HOS cells incubated for 48 hrs by Western blot analysis; type: functional, cell-based; settings: dose 0.1-0.4 µM, DDE = dose-dependent effect
[13] = system: MG-63; experiment: Antimigratory activity against human MG-63 cells assessed as expression of FAK by measuring fluorescence at 0.1 to 0.4 uM upto 48 hrs by DAPI staining based immunofluorescence microscopic analysis; type: functional, cell-based; settings: dose 0.1-0.4 µM
[14] = biological target: T1, Platelet-derived growth factor receptor beta; experiment: Inhibition of PDGFRbeta-mediated downstream signalling in human MG-63 cells assessed as suppression of AKT phosphorylation at 0.1 uM measured after 48 hrs by western blot analysis; type: cell-based
[15] = system: MG-63; experiment: Induction of cell cycle arrest in human MG-63 cells assessed as accumulation of cells at G0/G1 phase incubated for 48 hrs by propidium iodide staining based flow cytometry analysis; type: functional; settings: dose 0.1-0.4 µM, DDE = dose-dependent effect
[16] = system: MG-63; experiment: Induction of apoptosis in human MG-63 cells at 0.4 uM after 48 hrs by Annexin V/PI staining based flow cytometric analysis; type: functional, cell-based
[17] = system: MG-63; experiment: Inhibition of cell migration in human MG-63 cells at 0.1 to 0.4 uM measured for 48 hrs scratch wound healing migration assay; type: functional, cell-based; settings: dose 0.1-0.4 µM

T1 sequence (P09619 whole entry): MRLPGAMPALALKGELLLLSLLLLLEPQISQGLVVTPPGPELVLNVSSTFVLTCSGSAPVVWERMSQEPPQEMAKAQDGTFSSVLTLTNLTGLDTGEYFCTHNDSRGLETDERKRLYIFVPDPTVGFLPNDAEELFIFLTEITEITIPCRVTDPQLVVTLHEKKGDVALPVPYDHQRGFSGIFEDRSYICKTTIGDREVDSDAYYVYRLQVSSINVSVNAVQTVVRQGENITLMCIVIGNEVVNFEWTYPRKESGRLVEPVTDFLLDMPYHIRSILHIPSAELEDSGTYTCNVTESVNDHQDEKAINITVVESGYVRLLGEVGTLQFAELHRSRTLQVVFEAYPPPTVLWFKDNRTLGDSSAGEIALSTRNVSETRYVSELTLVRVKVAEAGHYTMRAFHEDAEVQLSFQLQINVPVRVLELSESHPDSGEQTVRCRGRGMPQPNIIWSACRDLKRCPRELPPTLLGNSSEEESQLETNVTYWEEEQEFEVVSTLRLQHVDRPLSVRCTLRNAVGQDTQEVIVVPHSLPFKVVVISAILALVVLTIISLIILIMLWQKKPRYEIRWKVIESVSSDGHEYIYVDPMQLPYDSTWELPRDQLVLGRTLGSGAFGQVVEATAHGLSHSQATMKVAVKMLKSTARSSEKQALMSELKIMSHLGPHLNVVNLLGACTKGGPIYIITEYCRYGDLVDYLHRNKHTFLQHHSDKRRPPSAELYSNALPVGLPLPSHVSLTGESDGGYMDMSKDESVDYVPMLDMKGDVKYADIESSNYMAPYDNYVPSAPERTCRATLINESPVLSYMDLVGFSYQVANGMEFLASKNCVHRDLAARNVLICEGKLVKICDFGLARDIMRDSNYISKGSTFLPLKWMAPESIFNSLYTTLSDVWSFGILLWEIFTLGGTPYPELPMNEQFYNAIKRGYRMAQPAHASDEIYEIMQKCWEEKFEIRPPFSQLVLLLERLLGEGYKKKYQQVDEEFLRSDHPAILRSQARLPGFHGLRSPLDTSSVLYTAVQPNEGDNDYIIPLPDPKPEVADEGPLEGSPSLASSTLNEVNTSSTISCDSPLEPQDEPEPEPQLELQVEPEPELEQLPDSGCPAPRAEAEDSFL
Sequence of Focal adhesion kinase 1 (Homo sapiens) (Q05397 2-1052 limits assumed): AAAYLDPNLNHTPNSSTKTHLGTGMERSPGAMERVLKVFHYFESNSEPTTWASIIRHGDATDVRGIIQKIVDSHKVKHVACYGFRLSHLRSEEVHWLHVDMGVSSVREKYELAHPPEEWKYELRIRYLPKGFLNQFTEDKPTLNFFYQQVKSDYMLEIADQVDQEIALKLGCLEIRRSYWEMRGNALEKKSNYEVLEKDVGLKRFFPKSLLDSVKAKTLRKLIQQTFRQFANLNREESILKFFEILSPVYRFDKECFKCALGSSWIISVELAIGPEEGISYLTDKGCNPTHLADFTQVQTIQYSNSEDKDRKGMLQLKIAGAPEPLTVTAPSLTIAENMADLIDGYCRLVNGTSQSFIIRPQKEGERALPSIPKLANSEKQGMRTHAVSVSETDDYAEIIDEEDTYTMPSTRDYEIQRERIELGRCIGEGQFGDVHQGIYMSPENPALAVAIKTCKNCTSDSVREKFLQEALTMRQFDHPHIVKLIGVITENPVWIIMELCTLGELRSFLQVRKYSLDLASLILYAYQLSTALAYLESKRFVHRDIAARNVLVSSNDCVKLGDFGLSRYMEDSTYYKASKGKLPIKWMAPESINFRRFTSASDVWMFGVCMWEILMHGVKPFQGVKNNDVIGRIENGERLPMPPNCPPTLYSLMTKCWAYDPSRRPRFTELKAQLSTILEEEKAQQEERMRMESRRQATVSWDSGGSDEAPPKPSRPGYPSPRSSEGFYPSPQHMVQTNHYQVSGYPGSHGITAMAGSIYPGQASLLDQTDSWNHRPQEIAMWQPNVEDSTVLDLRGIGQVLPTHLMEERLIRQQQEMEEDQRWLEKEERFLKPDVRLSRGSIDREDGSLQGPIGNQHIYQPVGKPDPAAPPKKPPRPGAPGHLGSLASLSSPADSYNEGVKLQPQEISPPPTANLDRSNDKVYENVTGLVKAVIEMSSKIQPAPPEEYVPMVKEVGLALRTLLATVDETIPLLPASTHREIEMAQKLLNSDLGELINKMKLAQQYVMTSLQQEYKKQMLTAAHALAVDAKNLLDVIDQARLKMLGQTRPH

CCN1CCN(c2ccc(Nc3ncc(C)c(Nc4ccc5cn[nH]c5c4)n3)cc2OC)CC1
active: Activity [1] | Activity [2] Dde | Activity [3] Dde | Activity [4] | inhibition [5] Dde | Activity [6] | inhibition [7] | inhibition [8] Dde | inhibition [9] | inhibition [10] | inhibition [11] | inhibition [12] Dde | Activity [13] | inhibition [14] | Activity [15] Dde | Activity [16] | inhibition [17]
